Columns and labels:
[1] = tested on: E. coli transformants; assay: Fragment exchange: transformants selected for PPT resistance; assay type: cell-based
From the text: (§1) Tables I and II show the results obtained.

[2] = target: T1, wild-type GS (pCGS3) (Medicago sativa, UniProt P04078); assay: Inhibition of GS activity by PPT, lysate of E. coli FDB213 containing pCGS3; assay type: biochemical, alfalfa; conditions: read-out: Relative GS Enzyme Activity
T1 construct: made in house; host or cells: E. coli FDB213 (glnA deletion), clarified lysate
T1 sequence (P04078 1-356): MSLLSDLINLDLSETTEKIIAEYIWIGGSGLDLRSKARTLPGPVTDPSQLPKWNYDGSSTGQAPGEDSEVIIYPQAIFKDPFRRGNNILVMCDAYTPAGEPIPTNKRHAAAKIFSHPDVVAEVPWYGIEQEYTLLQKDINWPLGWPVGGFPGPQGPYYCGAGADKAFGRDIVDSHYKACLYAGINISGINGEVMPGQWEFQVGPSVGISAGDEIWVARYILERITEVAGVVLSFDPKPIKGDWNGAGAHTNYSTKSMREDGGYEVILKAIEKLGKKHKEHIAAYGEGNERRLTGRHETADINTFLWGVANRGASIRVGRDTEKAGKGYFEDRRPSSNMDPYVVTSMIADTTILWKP
Method: (§2) The cells were collected by centrifugation at 5,000 r.p.m. (5° C.) for 5 min, resuspended in 1.0 ml 10mM Tris-HCl, pH 7.5, 1 mM EDTA, 5 mM beta-mercaptoethanol, and lysed by sonication.

[3] = target: T2, PPT resistant mutant GS (lys 332) (pCGS3-LYS332) (Medicago sativa, UniProt P04078, R332K); assay: biochemical; set-up: species or system alfalfa; conditions: read-out: Relative GS Enzyme Activity
T2 construct: made in house; host or cells: E. coli FDB213 (glnA deletion), clarified lysate
Method: as §2

[4] = tested on: E. coli containing pCGS3; assay: Replating on M9 with PPT, plasmid pCGS3; assay type: cell-based
From the text: as §1

[5] = target: T3, PPT resistant mutant GS (ser 245) (pCGS3-SER245) (Medicago sativa, UniProt P04078, G245S); assay: Inhibition of GS activity by PPT, lysate of E. coli FDB213 containing pCGS3-Ser245; assay type: biochemical, alfalfa; conditions: read-out: Relative GS Enzyme Activity
T3 construct: made in house; host or cells: E. coli FDB213 (glnA deletion), clarified lysate
Method: as §2

[6] = target: T4, pea leaf glutamine synthetase (Pisum sativum, UniProt P08281); conditions: mixed competitive inhibitor; cited from earlier work
T4 sequence (P08281 50-430): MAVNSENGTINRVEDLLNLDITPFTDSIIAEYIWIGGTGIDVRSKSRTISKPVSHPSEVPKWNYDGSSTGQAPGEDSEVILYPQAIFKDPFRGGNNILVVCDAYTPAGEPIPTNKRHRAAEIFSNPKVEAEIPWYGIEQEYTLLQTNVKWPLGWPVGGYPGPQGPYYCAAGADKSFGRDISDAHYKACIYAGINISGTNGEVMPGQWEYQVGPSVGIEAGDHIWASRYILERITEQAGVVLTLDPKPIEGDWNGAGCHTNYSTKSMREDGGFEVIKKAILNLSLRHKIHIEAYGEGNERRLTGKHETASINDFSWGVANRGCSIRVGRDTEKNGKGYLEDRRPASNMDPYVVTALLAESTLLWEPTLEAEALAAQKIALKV

T2 sequence (P04078 whole entry R332K): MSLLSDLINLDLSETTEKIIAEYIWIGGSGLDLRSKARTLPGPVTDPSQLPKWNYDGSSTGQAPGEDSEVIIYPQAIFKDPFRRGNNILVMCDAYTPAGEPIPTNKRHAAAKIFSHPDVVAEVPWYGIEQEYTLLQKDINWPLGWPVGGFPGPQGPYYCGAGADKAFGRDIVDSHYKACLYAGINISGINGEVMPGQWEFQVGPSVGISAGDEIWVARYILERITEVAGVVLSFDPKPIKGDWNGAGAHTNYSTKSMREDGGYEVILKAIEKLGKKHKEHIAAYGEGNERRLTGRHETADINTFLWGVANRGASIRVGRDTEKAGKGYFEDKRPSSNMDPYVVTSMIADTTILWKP
T3 sequence (P04078 whole entry G245S): as the sequence (P04078 whole entry R332K) above, with G245S, K332R counted along it

With CP(=O)(O)CC[C@H](N)C(=O)O [L-PPT, L-phosphinothricin] the “NUMBER OF COLONIES M9 AMP + 3 mM L-PPT” value ([1]; 9: CCC pCGS3) was 100, the “NUMBER OF COLONIES M9 AMP + 3 mM L-PPT” value ([1]; 10: CCC pCGS3 PPT^r) was > 1000 and the “NUMBER OF COLONIES M9 AMP + 3 mM L-PPT” value ([1]; ligation 2: insert PPT^r SalI-NcoI, vector SalI-NcoI) was 8. The “NUMBER OF COLONIES M9 AMP + 3 mM L-PPT” value ([1]; ligation 4: insert PPT^r NcoI-EcoRI, vector NcoI-EcoRI) was 6, the “NUMBER OF COLONIES M9 AMP + 3 mM L-PPT” value ([1]; ligation 6: insert PPT^r EcoRI-HindIII, vector EcoRI-HindIII) was 300 and the “NUMBER OF COLONIES M9 AMP + 3 mM L-PPT” value ([1]; ligation 8: insert PPT^r HindIII-BamHI, vector HindIII-BamHI) was 2.
CP(=O)(O)CC[C@H](N)C(=O)O [PPT, phosphinothricin] gave a remaining activity at 4 µM ([2]; 4 uM PPT) of 102%, a remaining activity at 25 µM ([2]; 25 uM PPT) of 95.7% and a remaining activity at 62.5 µM ([2]; 62.5 uM PPT) of 84%. For the same compound, the remaining activity at 125 µM ([2]; 125 uM PPT) was 68%, the remaining activity at 250 µM ([2]; 250 uM PPT) was 42.7% and the remaining activity at 2000 µM ([2]; 2 mM PPT) was 15%. For the same compound, the remaining activity at 20000 µM ([2]; 20 mM PPT) was 4.3%, the remaining activity at 4 µM [3] was 103% and the remaining activity at 25 µM [3] was 103%. It also gave a remaining activity at 62.5 µM [3] of 103%, a remaining activity at 125 µM [3] of 100% and a remaining activity at 250 µM [3] of 98.5%. For the same compound, the remaining activity at 2000 µM [3] was 78.2%, the remaining activity at 20000 µM [3] was 23.8% and the growth on replating ([4]; M9/6 mM PPT, from LB) was 0. The growth on replating ([4]; M9/6 mM PPT, from M9) was 0, the growth on replating ([4]; M9/12 mM PPT, from LB) was 0 and the growth on replating ([4]; M9/12 mM PPT, from M9) was 0. For the same compound, the remaining activity at 4 µM [5] was 103%, the remaining activity at 25 µM [5] was 103% and the remaining activity at 62.5 µM [5] was 97.3%. It also gave a remaining activity at 125 µM [5] of 91.4%, a remaining activity at 250 µM [5] of 80.6% and a remaining activity at 2000 µM [5] of 30.7%. It also gave a remaining activity at 20000 µM [5] of 5.3%.
In the case of CS(=N)(=O)CCC(N)C(=O)O (centres unmarked) [MSO, methione sulfoximine], the Ki [6] is given as 160 µM.

Source: patent publication US4975374A (priority 1987, dated 1990)
